Results published in patent publication US12478614B2, “Inhibitors of glutathione s-transferases (GSTs) and NAD(P)H:quinone oxidoreductase 1 (NQO1), pharmaceutical compositions, and uses in managing cancer” (Emory University, priority 2020, dated 2025).
Entries after “also recorded” stand apart in the source; their conditions may differ.

Experiments:
U87MG/EGFRvIII cells [1] = test: Proliferation of U87MG/EGFRvIII cells; format: cell-based
Procedure: After structure-activity relationship (SAR) analysis, it was identified that that most compounds contained two aromatic rings bridged through an amide group.
(§1) To explore the anti-proliferative effects of MNPC, U87MG/EGFRVIII cells were treated with different doses of MNPC (0, 0.1, 0.5, 1 and 5 μM) for 5 days. […] Asparagine endopeptidase (AEP) is frequently overexpressed in numerous human cancers and mediates cancer cell invasion and metastasis. […] Since NQO1 and GSTP1 are the major binding proteins of MNPC, in vitro reductase enzyme activity assays with purified recombinant proteins was conducted. […] NQO1 also acts as an antioxidant enzyme by regenerating antioxidant forms of ubiquinone and vitamin E quinone. To explore whether the oxidative stress levels are correlated with the expression levels of antioxidant enzymes: NQO1 and GSTP1, the cellular ROS concentrations and cytotoxicity after MNPC treatment was examined. […] Thus, MNPC inhibits GSTP1 and NQ01 enzyme activities without altering their protein levels. […] The results were also confirmed by TUNEL assay.

NQO1 [2] = biological target: T1, NQO1 (Homo sapiens, UniProt P15559); test: BIACORE binding assay, NQO1; conditions: MNPC immobilized to the chip
GSTP1 [3] = biological target: T2, GSTP1 (Homo sapiens, UniProt P09211); test: BIACORE binding assay, GSTP1; conditions: MNPC immobilized to the chip
NQO1 [4] = biological target: T1, NQO1; test: In vitro reductase enzyme activity assay, NQO1; format: biochemical; conditions: purified recombinant protein
Procedure: as §1

GSTP1 [5] = biological target: T2, GSTP1; test: In vitro enzyme activity assay, GSTP1; format: biochemical; conditions: purified recombinant protein
Procedure: as §1

U87MG/EGFRvIII cells [6] = test: Cell invasion assay; format: cell-based
Procedure: as §1

[7] = biological target: T3, Asparagine endopeptidase (AEP) (Homo sapiens, UniProt Q99538); test: AEP enzymatic activity assay; format: cell-based
T3 construct: endogenous in cells; host or cells: U87MG/EGFRvIII (inferred from context)
T3 sequence (Q99538 18-323): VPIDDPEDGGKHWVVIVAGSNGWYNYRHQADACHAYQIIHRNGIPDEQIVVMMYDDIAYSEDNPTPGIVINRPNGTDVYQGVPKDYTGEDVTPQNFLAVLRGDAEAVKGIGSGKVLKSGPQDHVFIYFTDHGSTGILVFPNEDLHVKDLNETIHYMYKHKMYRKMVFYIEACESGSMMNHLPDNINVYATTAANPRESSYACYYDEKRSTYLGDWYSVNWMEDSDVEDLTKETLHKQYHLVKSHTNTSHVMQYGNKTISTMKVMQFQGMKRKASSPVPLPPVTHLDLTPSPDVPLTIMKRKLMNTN
Procedure: as §1

U87MG/EGFR cells = test: Cellular oxidative stress and cytotoxicity after MNPC treatment; format: cell-based
Procedure: as §1

U87MG/EGFRvIII cells [8] = test: Apoptosis (caspase-3 activation, TUNEL assay); format: cell-based
Procedure: as §1

NQO1 [9] = test: NQO1 protein level upon treatment; format: cell-based; conditions: upon MNPC treatment
Procedure: as §1

GSTP1 [10] = test: GSTP1 protein level upon treatment; format: cell-based; conditions: upon MNPC treatment
Procedure: as §1

U87MG/EGFRvIII cells [11] = test: Murine intracranial xenograft model with U87MG/EGFRvIII cells; format: in vivo, Nu/Nu nude mice
Procedure: Nu/Nu nude mice were treated with increasing doses (3, 10 mg/kg) of MNPC by i.p. every two days for total 10 times (n=6 mice per group). The survival curves of brain tumor-bearing mice were calculated.
To assess the therapeutic potential of MNPC, a murine intracranial xenograft model was used, inoculated with U87MG/EGFRvIII cells. After 7 days of brain injection of the GBM cells and the tumor formation, the animals were treated with vehicle or different doses of MNPC (3 or 10 mg/kg) every 2 days for a total of 10 times. […] The ROS levels and signaling cascades were examined in the tissue samples derived from tumors extracted from MNPC or vehicle-treated mice.

NQO1 [12] = biological target: T1, NQO1; test: Co-crystal structure with NQO1
Procedure: (§2) Experiments indicate that both NQO1 and GSTP1 were overexpressed in GBM, which inhibit the oxidative stress and prevent cancer cell death. Compounds which act as NQO1 and GSTP1 dual inhibitors suppress the proliferation and stimulated apoptosis in U87MG/EGFRVIII cells. […] Thus, these experiments indicate that a small dual inhibitor for both NQO1 and GSTP1 disrupting the redox homeostasis might be an innovative strategy for GBM therapy.

GSTP1 [13] = biological target: T2, GSTP1; test: Co-crystal structure with GSTP1
Procedure: as §2

[14] = 3 or 10 mg/kg i.p. every 2 days, 10 times, especially 10 mg/kg

Cc1onc(-c2ccccc2)c1C(=O)Nc1ncc([N+](=O)[O-])s1 [MNPC, 5-methyl-N-(5-nitrothiazol-2-yl)-3-phenylisoxazole-4-carboxamide]
cell proliferation (U87MG/EGFRvIII cells [1]; U87MG/EGFRVIII cells, 0, 0.1, 0.5, 1 and 5 μM for 5 days): dose-dependently inhibited | Kd (NQO1 [2]): 90.8 nM | Kd (GSTP1 [3]): 89.6 nM | IC50 (NQO1 [4]): 926 nM | IC50 (GSTP1 [5]): 797 nM | cell invasion (U87MG/EGFRvIII cells [6]): no significant difference | AEP enzymatic activity [7]: no significant difference | Carbonyl Expression (U87MG/EGFR cells): escalated | LDH (U87MG/EGFR cells; cytotoxicity): escalated | ROS levels (U87MG/EGFR cells; dose-dependent): increased | GSH/GSSH ratios (U87MG/EGFR cells; in a dose-dependent manner): down-regulated | cell apoptosis (U87MG/EGFRvIII cells [8]; TUNEL assay): dose-dependently increases | caspase-3 activation (U87MG/EGFRvIII cells [8]; U87MG/EGFRvIII cells): induced | protein level of NQO1 (NQO1 [9]): not changed | protein level of GSTP1 (GSTP1 [10]): not changed | tumor growth (intracranial tumor volume) (U87MG/EGFRvIII cells [11]; 3 or 10 mg/kg i.p. every 2 days, 10 times): dose-dependent anti-tumor effect; also recorded: suppresses tumor growth | body weight (U87MG/EGFRvIII cells [11]; [14]): significantly increased | survival rates (U87MG/EGFRvIII cells [11]; [14]): prolonged the survival rate; also recorded: significantly increased; also recorded: elongates mouse life span | ROS levels in tumor tissue samples (U87MG/EGFRvIII cells [11]; tumors from treated mice): strongly increased | apoptotic caspase 3 in tumor tissue samples (U87MG/EGFRvIII cells [11]; tumors from treated mice): activated | effect on NQO1 active site in co-crystal structure (NQO1 [12]): blocked the active enzymatic sites | effect on GSTP1 active site in co-crystal structure (GSTP1 [13]): blocked the active enzymatic sites

CC(=O)Oc1ccccc1C(=O)Nc1ncc([N+](=O)[O-])s1 [NTZ, 2-((5-nitrothiazol-2-yl)carbamoyl)phenyl acetate]
anti-proliferative activities toward U87MG/EGFRvIII cells compared with MNPC (U87MG/EGFRvIII cells [1]): comparable anti-proliferative activities

O=C(Nc1ncc([N+](=O)[O-])s1)c1ccccc1O [TIZ, 2-hydroxy-N-(5-nitrothiazol-2-yl)benzamide]
anti-proliferative activities toward U87MG/EGFRvIII cells compared with MNPC (U87MG/EGFRvIII cells [1]): comparable anti-proliferative activities
